System: MV-4-11 cells
Assay: Gene expression microarray analysis (Affymetrix PrimeView) and GSEA
Assay type: cell-based, human
Design: RFU PODN (11730768_x_at) / Fold change /veh PODN (11730768_x_at) / RFU LINC00158 (11744669_a_at) / Fold change /veh LINC00158 (11744669_a_at) / RFU DUSP10 (11751237_a_at) / Fold change /veh DUSP10 (11751237_a_at) / RFU ID3 (11757404_x_at) / Fold change /veh ID3 (11757404_x_at) / RFU PLEKHG5 (11737974_s_at) / Fold change /veh PLEKHG5 (11737974_s_at) / RFU LRRC4B (11730491_at) / Fold change /veh LRRC4B (11730491_at) / RFU GIMAP4 (11747438_a_at) / Fold change /veh GIMAP4 (11747438_a_at) / RFU KRT8 (11758183_x_at) / Fold change /veh KRT8 (11758183_x_at) / RFU CNN1 (11734310_a_at) / Fold change /veh CNN1 (11734310_a_at) / RFU VPS37D (11726825_at) / Fold change /veh VPS37D (11726825_at) / RFU C10orf10 (11716522_x_at) / Fold change /veh C10orf10 (11716522_x_at) / RFU KIR2DL2 /// KIR2DL4 /// KIR2DL5A /// KIR2DL5B /// KIR2DS1 /// KIR2DS2 /// KIR2DS3 /// KIR2DS4 /// KIR3DL3 /// KIR3DL3 /// KIR3DS1 (11738374_at) / Fold change /veh KIR2DL2 /// KIR2DL4 /// KIR2DL5A /// KIR2DL5B /// KIR2DS1 /// KIR2DS2 /// KIR2DS3 /// KIR2DS4 /// KIR3DL3 /// KIR3DL3 /// KIR3DS1 (11738374_at) / RFU C1QL1 (11718748_at) / Fold change /veh C1QL1 (11718748_at) / RFU TMPRSS4 (11747572_a_at) / Fold change /veh TMPRSS4 (11747572_a_at) / RFU HAMP (11756126_x_at) / Fold change /veh HAMP (11756126_x_at) / RFU RNFT2 (11725882_a_at) / Fold change /veh RNFT2 (11725882_a_at) / RFU NR4A2 (11747474_a_at) / Fold change /veh NR4A2 (11747474_a_at) / RFU ABCC12 (11746883_a_at) / Fold change /veh ABCC12 (11746883_a_at) / RFU TMEM136 (11760407_x_at) / Fold change /veh TMEM136 (11760407_x_at) / RFU CLDN22 /// WWC2 (11732394_at) / Fold change /veh CLDN22 /// WWC2 (11732394_at) / RFU HLA-DPB1 (11760878_x_at) / Fold change /veh HLA-DPB1 (11760878_x_at) / RFU SPINT1 (11716480_a_at) / Fold change /veh SPINT1 (11716480_a_at) / RFU GAP43 (11754022_s_at) / Fold change /veh GAP43 (11754022_s_at) / RFU A4GNT (11735810_at) / Fold change /veh A4GNT (11735810_at) / RFU PRB3 (11715151_x_at) / Fold change /veh PRB3 (11715151_x_at) / RFU TUBB4B (11761932_at) / Fold change /veh TUBB4B (11761932_at) / RFU CAPN14 (11732068_a_at) / Fold change /veh CAPN14 (11732068_a_at) / RFU TMCC2 (11721928_a_at) / Fold change /veh TMCC2 (11721928_a_at) / RFU IRGQ (11745062_a_at) / Fold change /veh IRGQ (11745062_a_at) / RFU FAM174B (11720279_a_at) / Fold change /veh FAM174B (11720279_a_at) / RFU TMPRSS4 (11748680_a_at) / Fold change /veh TMPRSS4 (11748680_a_at) / RFU FAM212B (11763350_a_at) / Fold change /veh FAM212B (11763350_a_at) / RFU PLEKHG5 (11743358_a_at) / Fold change /veh PLEKHG5 (11743358_a_at) / RFU ZSCAN30 (11745921_a_at) / Fold change /veh ZSCAN30 (11745921_a_at) / RFU CMKLR1 (11741424_a_at) / Fold change /veh CMKLR1 (11741424_a_at) / RFU LOC101060620 /// MAPK8IP1 (11723275_at) / Fold change /veh LOC101060620 /// MAPK8IP1 (11723275_at) / RFU SPTSSB (11747773_x_at) / Fold change /veh SPTSSB (11747773_x_at) / RFU PRSS12 (11739890_at) / Fold change /veh PRSS12 (11739890_at) / RFU BIN1 (11741810_x_at) / Fold change /veh BIN1 (11741810_x_at) / RFU WNT11 (11732464_a_at) / Fold change /veh WNT11 (11732464_a_at) / RFU C10orf10 (11716521_a_at) / Fold change /veh C10orf10 (11716521_a_at) / RFU C5orf56 (11738089_at) / Fold change /veh C5orf56 (11738089_at) / RFU CYB561 (11721691_x_at) / Fold change /veh CYB561 (11721691_x_at) / RFU ANKRD19P (11752326_a_at) / Fold change /veh ANKRD19P (11752326_a_at) / RFU OR2T12 /// OR2T33 /// OR2T8 (11738714_s_at) / Fold change /veh OR2T12 /// OR2T33 /// OR2T8 (11738714_s_at) / RFU VCAN (11748164_a_at) / Fold change /veh VCAN (11748164_a_at) / RFU JSRP1 (11732532_at) / Fold change /veh JSRP1 (11732532_at) / RFU KRTAP10-11 (11738290_x_at) / Fold change /veh KRTAP10-11 (11738290_x_at) / RFU MYO3A (11730013_a_at) / Fold change /veh MYO3A (11730013_a_at) / RFU EBF3 (11725865_a_at) / Fold change /veh EBF3 (11725865_a_at) / RFU CAMK2N1 (11719241_x_at) / Fold change /veh CAMK2N1 (11719241_x_at) / RFU C5orf56 (11738088_a_at) / Fold change /veh C5orf56 (11738088_a_at) / RFU OLFML3 (11715873_a_at) / Fold change /veh OLFML3 (11715873_a_at) / RFU LOC100653217 /// NTM (11731650_a_at) / Fold change /veh LOC100653217 /// NTM (11731650_a_at) / RFU MAPK11 (11762145_a_at) / Fold change /veh MAPK11 (11762145_a_at) / RFU FIZ1 (11724087_x_at) / Fold change /veh FIZ1 (11724087_x_at) / RFU OASL (11726364_x_at) / Fold change /veh OASL (11726364_x_at) / RFU SOX15 (11748057_x_at) / Fold change /veh SOX15 (11748057_x_at) / RFU CD79A (11719716_a_at) / Fold change /veh CD79A (11719716_a_at) / RFU HIST1H1D (11736915_at) / Fold change /veh HIST1H1D (11736915_at) / RFU CASKIN2 (11723855_a_at) / Fold change /veh CASKIN2 (11723855_a_at) / RFU LOC730098 (11760151_x_at) / Fold change /veh LOC730098 (11760151_x_at) / RFU OR4N2 (11742367_at) / Fold change /veh OR4N2 (11742367_at) / RFU PRRT2 (11749266_a_at) / Fold change /veh PRRT2 (11749266_a_at) / RFU SNX32 (11753110_a_at) / Fold change /veh SNX32 (11753110_a_at) / RFU CDHR5 (11726645_a_at) / Fold change /veh CDHR5 (11726645_a_at) / RFU RCAN1 (11760418_a_at) / Fold change /veh RCAN1 (11760418_a_at) / RFU FAM167A (11723789_a_at) / Fold change /veh FAM167A (11723789_a_at) / RFU FAM26E (11764081_at) / Fold change /veh FAM26E (11764081_at) / RFU ISYNA1 (11749810_s_at) / Fold change /veh ISYNA1 (11749810_s_at) / RFU ACY1 (11761880_at) / Fold change /veh ACY1 (11761880_at) / RFU 11764098_at / Fold change /veh 11764098_at / RFU SAMD14 (11745864_x_at) / Fold change /veh SAMD14 (11745864_x_at) / RFU NPB (11741838_a_at) / Fold change /veh NPB (11741838_a_at) / RFU TMPRSS6 (11731388_a_at) / Fold change /veh TMPRSS6 (11731388_a_at) / RFU KRTAP10-2 (11738614_at) / Fold change /veh KRTAP10-2 (11738614_at) / RFU ARHGAP8 /// PRR5-ARHGAP8 (11727945_x_at) / Fold change /veh ARHGAP8 /// PRR5-ARHGAP8 (11727945_x_at) / RFU KRTAP5-7 /// NADSYN1 (11734609_at) / Fold change /veh KRTAP5-7 /// NADSYN1 (11734609_at) / RFU RASL12 (11751679_a_at) / Fold change /veh RASL12 (11751679_a_at) / RFU CDKN2B (11736163_a_at) / Fold change /veh CDKN2B (11736163_a_at) / RFU PRF1 (11729649_at) / Fold change /veh PRF1 (11729649_at) / RFU, ZNF638 /// ZNF638-IT1 / Fold change vs veh, ZNF638 /// ZNF638-IT1 / RFU, PANK3 / Fold change vs veh, PANK3 / RFU, SH3YL1 / Fold change vs veh, SH3YL1 / RFU, ZEB2 / Fold change vs veh, ZEB2 / RFU, NRIP1 / Fold change vs veh, NRIP1 / RFU, PTTG1IP / Fold change vs veh, PTTG1IP / RFU, CAPN2 / Fold change vs veh, CAPN2 / RFU, MED14 / Fold change vs veh, MED14 / RFU, SNORA58 / Fold change vs veh, SNORA58 / RFU, C1orf63 / Fold change vs veh, C1orf63 / RFU, LRRFIP1 / Fold change vs veh, LRRFIP1 / RFU, NDUFAF7 / Fold change vs veh, NDUFAF7 / RFU, SLC12A2 / Fold change vs veh, SLC12A2 / RFU, IBTK / Fold change vs veh, IBTK / RFU, ESF1 / Fold change vs veh, ESF1 / Fold change vs veh, TMEM50B / RFU, TAOK1 / Fold change vs veh, TAOK1 / RFU, ACBD3 / Fold change vs veh, ACBD3 / RFU, TMA16 / Fold change vs veh, TMA16 / RFU, RWDD3 / Fold change vs veh, RWDD3 / RFU, BCAT1 / Fold change vs veh, BCAT1 / RFU, EDEM3 / Fold change vs veh, EDEM3 / RFU, TMEM33 / Fold change vs veh, TMEM33 / RFU, WDR75 / Fold change vs veh, WDR75 / RFU, AHCTF1 / Fold change vs veh, AHCTF1 / RFU, TFRC / Fold change vs veh, TFRC / RFU, ZDHHC17 / Fold change vs veh, ZDHHC17 / RFU, NOM1 / Fold change vs veh, NOM1 / RFU, ARL8B / Fold change vs veh, ARL8B / RFU, ZBTB11 / Fold change vs veh, ZBTB11 / RFU, TAMM41 / Fold change vs veh, TAMM41 / RFU, KIAA1704 /// LOC100996395 / Fold change vs veh, KIAA1704 /// LOC100996395 / RFU, ING1 / Fold change vs veh, ING1 / RFU, TRMT61B / Fold change vs veh, TRMT61B / RFU, FUBP3 / Fold change vs veh, FUBP3 / RFU, TP53 / Fold change vs veh, TP53 / RFU, TNKS2 / Fold change vs veh, TNKS2 / RFU, ZFP14 / Fold change vs veh, ZFP14 / RFU, ACTR2 / Fold change vs veh, ACTR2 / RFU, PPP3R1 / Fold change vs veh, PPP3R1 / RFU, PIK3R1 / Fold change vs veh, PIK3R1 / RFU, HNRNPA1 / Fold change vs veh, HNRNPA1 / RFU, RNF170 / Fold change vs veh, RNF170 / RFU, ZNF28 / Fold change vs veh, ZNF28 / RFU, RNGTT / Fold change vs veh, RNGTT / RFU, OGT / Fold change vs veh, OGT / RFU, BRD1 / Fold change vs veh, BRD1 / RFU, MARS / Fold change vs veh, MARS / RFU, ZNF655 / Fold change vs veh, ZNF655 / RFU, FAHD1 / Fold change vs veh, FAHD1 / RFU, BDP1 / Fold change vs veh, BDP1 / RFU, LRRCC1 / Fold change vs veh, LRRCC1 / RFU, ARID1A / Fold change vs veh, ARID1A / RFU, ZNF146 / Fold change vs veh, ZNF146 / RFU, ZNF330 / Fold change vs veh, ZNF330 / RFU, GPN3 / Fold change vs veh, GPN3 / RFU, C9orf123 / Fold change vs veh, C9orf123 / RFU, N4BP2L2 / Fold change vs veh, N4BP2L2 / RFU, ARFIP1 / Fold change vs veh, ARFIP1 / RFU, FAM179B / Fold change vs veh, FAM179B / RFU, BCL10 / Fold change vs veh, BCL10 / RFU, UHRF1BP1L / Fold change vs veh, UHRF1BP1L / RFU, BET1 / Fold change vs veh, BET1 / RFU, CNOT2 / Fold change vs veh, CNOT2 / RFU, ZNF268 / Fold change vs veh, ZNF268 / Fold change vs veh, ZNF507 / RFU, DGCR2 / Fold change vs veh, DGCR2 / RFU, WDSUB1 / Fold change vs veh, WDSUB1 / Fold change vs veh, HSP90B1 /// MIR3652 / RFU, ADSS / Fold change vs veh, ADSS / RFU, GK / Fold change vs veh, GK / RFU, ZNF148 / Fold change vs veh, ZNF148 / RFU, TAF9 / Fold change vs veh, TAF9 / RFU, SLC1A5 / Fold change vs veh, SLC1A5 / RFU, SLMO2 / Fold change vs veh, SLMO2 / RFU, ABCC4 / Fold change vs veh, ABCC4 / RFU, LOC101060439 /// RAP1B / Fold change vs veh, LOC101060439 /// RAP1B / RFU, RFX7 / Fold change vs veh, RFX7 / RFU, GTPBP10 / Fold change vs veh, GTPBP10 / RFU, CNEP1R1 / Fold change vs veh, CNEP1R1 / RFU, BIVM-ERCC5 /// ERCC5 / Fold change vs veh, BIVM-ERCC5 /// ERCC5 / RFU, ILF3 / Fold change vs veh, ILF3 / RFU 11762660_at / Fold change /veh 11762660_at / RFU VCAN (11757783_s_at) / Fold change /veh VCAN (11757783_s_at) / RFU DDX43 (11728927_at) / Fold change /veh DDX43 (11728927_at) / RFU KRT8 (11758188_x_at) / Fold change /veh KRT8 (11758188_x_at) / RFU NKD1 (11759106_at) / Fold change /veh NKD1 (11759106_at) / RFU SRD5A1 (11742802_a_at) / Fold change /veh SRD5A1 (11742802_a_at) / RFU TPSAB1 /// TPSB2 (11721975_s_at) / Fold change /veh TPSAB1 /// TPSB2 (11721975_s_at) / RFU GSTM3 (11746129_a_at) / Fold change /veh GSTM3 (11746129_a_at) / RFU IL23R (11737362_x_at) / Fold change /veh IL23R (11737362_x_at) / RFU TMEM51 (11727254_a_at) / Fold change /veh TMEM51 (11727254_a_at) / RFU PIWIL2 (11732686_x_at) / Fold change /veh PIWIL2 (11732686_x_at) / RFU ORM1 (11744905_x_at) / Fold change /veh ORM1 (11744905_x_at) / RFU CCDC152 (11743942_at) / Fold change /veh CCDC152 (11743942_at) / RFU ECM1 (11717891_a_at) / Fold change /veh ECM1 (11717891_a_at) / RFU IL23R (11748794_a_at) / Fold change /veh IL23R (11748794_a_at) / RFU TNFAIP8L3 (11732012_x_at) / Fold change /veh TNFAIP8L3 (11732012_x_at) / RFU MBOAT4 (11741988_at) / Fold change /veh MBOAT4 (11741988_at) / RFU 11764193_at / Fold change /veh 11764193_at / RFU TMEM53 (11763286_at) / Fold change /veh TMEM53 (11763286_at) / RFU MAGEB2 (11727129_at) / Fold change /veh MAGEB2 (11727129_at) / RFU TMEM200A (11744735_a_at) / Fold change /veh TMEM200A (11744735_a_at) / RFU CCDC152 (11751479_a_at) / Fold change /veh CCDC152 (11751479_a_at) / RFU FAM211A (11726209_a_at) / Fold change /veh FAM211A (11726209_a_at) / RFU RGS16 (11746705_a_at) / Fold change /veh RGS16 (11746705_a_at) / RFU VCAN (11755009_s_at) / Fold change /veh VCAN (11755009_s_at) / RFU RHOB (11743442_s_at) / Fold change /veh RHOB (11743442_s_at) / RFU RGS16 (11720943_a_at) / Fold change /veh RGS16 (11720943_a_at) / RFU RGS16 (11720944_at) / Fold change /veh RGS16 (11720944_at) / RFU, VPS4B / Fold change vs veh, VPS4B / RFU, CREB1 / Fold change vs veh, CREB1 / RFU, DNAJC13 / Fold change vs veh, DNAJC13 / RFU, GNAQ / Fold change vs veh, GNAQ / RFU, CDK5R1 / Fold change vs veh, CDK5R1 / RFU, ZRANB3 / Fold change vs veh, ZRANB3 / RFU, CUL4A / Fold change vs veh, CUL4A / RFU, CCNY / Fold change vs veh, CCNY / RFU, UFL1 / Fold change vs veh, UFL1 / RFU, COG3 / Fold change vs veh, COG3 / RFU, DIAPH2 / Fold change vs veh, DIAPH2 / RFU, SKA2 / Fold change vs veh, SKA2 / RFU, AFF3 / Fold change vs veh, AFF3 / RFU, LMF1 / Fold change vs veh, LMF1 / RFU, IPO11 / Fold change vs veh, IPO11 / RFU, DFFB / Fold change vs veh, DFFB / RFU, FOXP1 / Fold change vs veh, FOXP1 / RFU, CARD8 / Fold change vs veh, CARD8 / RFU, STRN3 / Fold change vs veh, STRN3 / RFU, ADK / Fold change vs veh, ADK / RFU, RASSF2 / Fold change vs veh, RASSF2 / RFU, WIPF1 / Fold change vs veh, WIPF1 / RFU, LARP1B / Fold change vs veh, LARP1B / RFU, RASA1 / Fold change vs veh, RASA1 / RFU, RB1 / Fold change vs veh, RB1 / RFU, PPFIA1 / Fold change vs veh, PPFIA1 / RFU, MAT2A / Fold change vs veh, MAT2A / RFU, CCT5 / Fold change vs veh, CCT5 / RFU, WDR92 / Fold change vs veh, WDR92 / RFU, CUX1 / Fold change vs veh, CUX1 / RFU, TTC7A / Fold change vs veh, TTC7A / RFU, TMEM135 / Fold change vs veh, TMEM135 / RFU, DEPTOR / Fold change vs veh, DEPTOR / RFU, CPM / Fold change vs veh, CPM / RFU, DNAJB6 / Fold change vs veh, DNAJB6 / RFU, CACNA2D3 / Fold change vs veh, CACNA2D3 / RFU, DTX4 / Fold change vs veh, DTX4 / RFU, TFCP2 / Fold change vs veh, TFCP2 / RFU, GMCL1 /// GMCL1P1 / Fold change vs veh, GMCL1 /// GMCL1P1 / RFU, AEBP2 / Fold change vs veh, AEBP2 / RFU, SNHG1 /// SNORD22 /// SNORD25 /// SNORD26 /// SNORD27 /// SNORD28 /// SNORD29 /// SNORD31 / Fold change vs veh, SNHG1 /// SNORD22 /// SNORD25 /// SNORD26 /// SNORD27 /// SNORD28 /// SNORD29 /// SNORD31 / Fold change (Aza/veh), C12orf56 (ProbeSet 11735607_a_at) / Fold change (ACY-1035/veh), C12orf56 (ProbeSet 11735607_a_at) / Fold change (Aza/veh), FGFR1OP (ProbeSet 11751329_s_at) / Fold change (ACY-1035/veh), FGFR1OP (ProbeSet 11751329_s_at) / Fold change (Aza/veh), VPS36 (ProbeSet 11739960_a_at) / Fold change (ACY-1035/veh), VPS36 (ProbeSet 11739960_a_at) / RFU SYPL1 (11715823_x_at) / Fold change /veh SYPL1 (11715823_x_at) / RFU IGFBP7 (11715501_s_at) / Fold change /veh IGFBP7 (11715501_s_at) / RFU REEP3 (11722064_at) / Fold change /veh REEP3 (11722064_at) / RFU IGLL1 (11728026_x_at) / Fold change /veh IGLL1 (11728026_x_at): dose or concentration left out as unconfirmed
Details: MV-4-11 cells, 48 hours

Nc1ccc(-c2cccs2)cc1NC(=O)c1ccc2c(c1)cc(C1CC1)n2CCN1CCOCC1 [ACY-1035]
RFU PRRT2 (11749266_a_at): 47.30 RFU

Reference: publication PMC5218480 (PLoS ONE, 2017)
